Results on 17 compounds are retold here after patent publication US11292788B2, “IL-17 and IFN-gamma inhibition for the treatment of autoimmune diseases and chronic inflammation” (Immunic AG, priority 2017, dated 2022).

Values after ≈ are worked out from the molar mass of the structure shown. Like-named read-outs stand apart in the source and are kept apart here.

The subject of series [1] is IL-17F. As to the kind of experiment: Cytokine assay: IL-17F production by human PBMC stimulated with PHA. The series is classed as cell-based. The note with it: Homo sapiens, PBMC, IC50 class, read-out: IL-17F Inhib. In a few lines: (§1)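 Human donor PBMC (1×10^5 cells/well) were activated with 2 μg/ml PHA and exposed to compounds for 48 h. Supernatant IL-17A, IL-17F and IFN-γ were measured by Luminex or ELISA. Screening used 10, 1, 0.1 and 0.01 μM; IC50 values came from semilogarithmic titrations.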

Series [2] can be described thus: Aqueous solubility in 50 mM phosphate buffer (HPLC/DAD). The note with it: 50 mM phosphate buffer, 23 °C, pH 7.4, aqueous buffer, kinetic from dmso stock, aqueous solubility class; read-out: aq. solub. Format: physicochemical. In a few lines: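 Compound at 200 μM (1% DMSO final) shaken 24 h at 23° C in aqueous phosphate buffers at pH 4.0, 6.0, 7.4 and 9.0. Undissolved material removed by centrifugation (30 min, 18000 g). Supernatant concentration quantified by HPLC-UV against a 0.1–200 μg/ml standard curve in MeCN.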

Series [3] in a line: Microsomal stability: incubation with human liver microsomes, residual parent compound by HPLC-MS/MS. Format: in vitro ADME. The settings on record: up to 60 min, read-out: t1/2 hLM. In a few lines: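 Compound at 1 μM final with 0.5 mg/ml pooled human liver microsomes and NADPH regenerating system, 0.1 M potassium phosphate pH 7.4, 0.4% DMSO, 37° C, sampled up to 60 min. Residual parent measured by HPLC-MS/MS; half-life and clearance from slope of remaining % of T0.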
A general note: Liver microsomes are a subcellular fraction often used to study metabolism.

Series [4] concerns IL-17A. The series can be described thus: Cytokine assay: IL-17A production by human PBMC stimulated with PHA. Format: cell-based. The settings on record: IC50 class, read-out: IL-17A Inhib. In a few lines: as §1
Series [5] has as its system INF-γ. The series can be described thus: Cytokine assay: INF-γ production by human PBMC stimulated with PHA. The series is classed as cell-based. The settings on record: Homo sapiens, PBMC, IC50 class, read-out: IFN-gamma Inhib. In a few lines: as §1
[6] abbreviates: human liver microsomes 0.5 mg/ml, compound 1 μM, pH 7.4, 37° C.
[7] abbreviates: pH 7.4, human liver microsomes, 1 μM compound, 0.5 mg/ml HLM, 37° C.

As to `CC(C)OCc1c(-c2c(F)cccc2Cl)noc1-c1cnn(C[C@@H](C)O)c1C(F)(F)F` [Example 89, (2R)-1-{4-[3-(2-chloro-6-fluorophenyl)-4-[(propan-2-yloxy)methyl]-1,2-oxazol-5-yl]-5-(trifluoromethyl)-1H-pyrazol-1-yl}propan-2-ol], the IC50 in series [1] was under 50 nM; in series [4] (Homo sapiens, PBMC) it was under 50 nM; in series [5], under 50 nM. Moreover, the solubility at 24 h in series [2] was over 10 µM. Moreover, in series [3] (setting [6]), the half-life at 1 μM lay in the range of 0.0333 to 0.167 h.
In the case of `C[C@@H](O)Cn1ncc(-c2onc(-c3c(F)cccc3Cl)c2COC2CCC2)c1C(F)(F)F` [Example 90, (2R)-1-(4-(3-(2-chloro-6-fluorophenyl)-4-(cyclobutoxymethyl)isoxazol-5-yl)-5-(trifluoromethyl)-1H-pyrazol-1-yl)propan-2-ol], the IC50 in series [1] was under 50 nM; in series [4] (Homo sapiens, PBMC), under 50 nM; in series [5], under 50 nM. Besides, the solubility at 24 h in series [2] is over 10 µM. Also, the half-life at 1 μM in series [3] (setting [6]) fell in the range of 0.0333 to 0.167 h.
As to `Cc1c(-c2onc(-c3ccccc3Cl)c2-c2ncccn2)cnn1[C@H]1C[C@@](C)(O)C1` [Example 99, 3-(4-(3-(2-chlorophenyl)-4-(pyrimidin-2-yl)isoxazol-5-yl)-5-methyl-1H-pyrazol-1-yl)-1-methylcyclobutan-1-ol], the IC50 in series [1] was under 50 nM; in series [4] (Homo sapiens, PBMC), 50 to 500 nM; in series [5] it was under 50 nM. The solubility at 24 h in series [2] was over 10 µM. Moreover, the half-life at 1 μM in series [3] (setting [7]) was over 1.67 h.
Consider `C[C@]1(O)C[C@@H](n2ncc(-c3onc(-c4ccccc4Cl)c3-c3cnccn3)c2C(F)(F)F)C1` [Example 101, 3-{4-[3-(2-chlorophenyl)-4-(pyrazin-2-yl)-1,2-oxazol-5-yl]-5-(trifluoromethyl)-1H-pyrazol-1-yl}-1-methylcyclobutan-1-ol], for which the IC50 in series [1] was at least 5000 nM; in series [4] (Homo sapiens, PBMC) it was 500 to 5000 nM; in series [5] it was at least 5000 nM. For the same compound, the solubility at 24 h in series [2] was 1 to 2.99 µM (≈ 0.476 to 1.42 µg/mL). Also, in series [3] (setting [7]), the half-life at 1 μM was over 1.67 h.
As to `C[C@]1(O)C[C@@H](n2ncc(-c3onc(-c4ccccc4Cl)c3-c3ncccn3)c2C(F)(F)F)C1` [Example 102, 3-{4-[3-(2-chlorophenyl)-4-(pyrimidin-2-yl)-1,2-oxazol-5-yl]-5-(trifluoromethyl)-1H-pyrazol-1-yl}-1-methylcyclobutan-1-ol], the IC50 in series [1] is under 50 nM; in series [4] (Homo sapiens, PBMC), under 50 nM; in series [5], under 50 nM. For the same compound, the solubility at 24 h in series [2] was over 10 µM. Moreover, in series [3] (setting [7]), the half-life at 1 μM is over 1.67 h.
Turning to `C[C@]1(O)C[C@@H](n2ncc(-c3onc(-c4c(F)cccc4Cl)c3-c3ccncn3)c2C(F)(F)F)C1` [Example 104, 3-{4-[3-(2-chloro-6-fluorophenyl)-4-(pyrimidin-4-yl)-1,2-oxazol-5-yl]-5-(trifluoromethyl)-1H-pyrazol-1-yl}-1-methylcyclobutan-1-ol], the IC50 in series [1], in series [4] and in series [5] was under 50 nM throughout. In addition, the solubility at 24 h in series [2] is 1 to 2.99 µM (≈ 0.494 to 1.48 µg/mL). For the same compound, the half-life at 1 μM in series [3] (setting [7]) is over 1.67 h.
Regarding `C[C@]1(O)C[C@@H](n2ncc(-c3onc(-c4ccccc4Cl)c3-c3ccncn3)c2C(F)(F)F)C1` [Example 106, 3-{4-[3-(2-chlorophenyl)-4-(pyrimidin-4-yl)-1,2-oxazol-5-yl]-5-(trifluoromethyl)-1H-pyrazol-1-yl}-1-methylcyclobutan-1-ol], the IC50 is under 50 nM in series [1]; under 50 nM in series [4] (Homo sapiens, PBMC); under 50 nM in series [5]. The solubility at 24 h in series [2] is over 10 µM. The half-life at 1 μM in series [3] (setting [7]) was over 1.67 h.
In the case of `Cc1c(-c2onc(-c3c(F)cccc3Cl)c2-c2cnccn2)cnn1[C@H]1C[C@@](C)(O)C1` [Example 110, 3-{4-[3-(2-chloro-6-fluorophenyl)-4-(pyrazin-2-yl)-1,2-oxazol-5-yl]-5-methyl-1H-pyrazol-1-yl}-1-methylcyclobutan-1-ol], the IC50 in series [1] was in the range of 50 to 500 nM; in series [4] (Homo sapiens, PBMC) it was 50 to 500 nM; in series [5] it was 50 to 500 nM. Further, in series [2], the solubility at 24 h is over 10 µM. Further, in series [3] (setting [7]), the half-life at 1 μM was over 1.67 h.
With `Cc1c(-c2onc(-c3c(F)cccc3Cl)c2-c2ncccn2)cnn1[C@H]1C[C@@](C)(O)C1` [Example 111, 3-{4-[3-(2-chloro-6-fluorophenyl)-4-(pyrimidin-2-yl)-1,2-oxazol-5-yl]-5-methyl-1H-pyrazol-1-yl}-1-methylcyclobutan-1-ol], the IC50 in series [1] is under 50 nM; in series [4] (Homo sapiens, PBMC), under 50 nM; in series [5], under 50 nM. Besides, the solubility at 24 h in series [2] is over 10 µM. Also, the half-life at 1 μM in series [3] (setting [7]) is over 1.67 h.
Consider `COc1cccc(-c2noc(-c3cnn([C@H]4C[C@@](C)(O)C4)c3C)c2-c2ncccn2)c1Cl` [Example 112, 3-{4-[3-(2-chloro-3-methoxyphenyl)-4-(pyrimidin-2-yl)-1,2-oxazol-5-yl]-5-methyl-1H-pyrazol-1-yl}-1-methylcyclobutan-1-ol], for which the IC50 in series [1] is under 50 nM; in series [4] (Homo sapiens, PBMC), under 50 nM; in series [5], under 50 nM. Moreover, in series [2], the solubility at 24 h was over 10 µM. For the same compound, in series [3] (setting [7]), the half-life at 1 μM was over 1.67 h.
Take `CC(C)(O)CCn1ncc(-c2onc(-c3c(F)cccc3Cl)c2-c2ncccn2)c1C(F)(F)F` [Example 123, 4-{4-[3-(2-chloro-6-fluorophenyl)-4-(pyrimidin-2-yl)-1,2-oxazol-5-yl]-5-(trifluoromethyl)-1H-pyrazol-1-yl}-2-methylbutan-2-ol]: the IC50 in series [1] is under 50 nM; in series [4] (Homo sapiens, PBMC), under 50 nM; in series [5], under 50 nM. The solubility at 24 h in series [2] was over 10 µM. The half-life at 1 μM in series [3] (setting [7]) was over 1.67 h.
For the compound `Cc1c(-c2onc(-c3ccccc3Cl)c2-c2ncccn2)cnn1CCC(C)(C)O` [Example 126, 4-[4-[3-(2-chlorophenyl)-4-(pyrimidin-2-yl)-1,2-oxazol-5-yl]-5-methyl-1H-pyrazol-1-yl]-2-methylbutan-2-ol], the IC50 in series [1] fell in the range of 50 to 500 nM; in series [4] (Homo sapiens, PBMC), 50 to 500 nM; in series [5], 50 to 500 nM. For the same compound, in series [2], the solubility at 24 h was over 10 µM. Besides, the half-life at 1 μM in series [3] (setting [7]) was over 1.67 h.
On to `CC(C)(O)CCn1ncc(-c2onc(-c3cccc(OCc4ccccc4)c3Cl)c2-c2ncccn2)c1C(F)(F)F` [Example 128, 4-(4-{3-[3-(benzyloxy)-2-chlorophenyl]-4-(pyrimidin-2-yl)-1,2-oxazol-5-yl}-5-(trifluoromethyl)-1H-pyrazol-1-yl)-2-methylbutan-2-ol], for which the IC50 in series [1] was under 50 nM; in series [4] (Homo sapiens, PBMC), under 50 nM; in series [5], at least 5000 nM. For the same compound, the solubility at 24 h in series [2] is under 1 µM. In addition, in series [3] (setting [7]), the half-life at 1 μM is 0.0333 to 0.167 h.
In the case of `COc1cccc(-c2noc(-c3cnn([C@H]4C[C@@](C)(O)C4)c3C(F)(F)F)c2COC2CC2)c1Cl` [Example 130, 3-(4-(3-(2-chloro-3-methoxyphenyl)-4-(cyclopropoxymethyl)isoxazol-5-yl)-5-(trifluoromethyl)-1H-pyrazol-1-yl)-1-methylcyclobutan-1-ol], the IC50 in series [1] is under 50 nM; in series [4] (Homo sapiens, PBMC) it was under 50 nM; in series [5], under 50 nM. Moreover, the solubility at 24 h in series [2] is 3 to 9.99 µM (≈ 1.49 to 4.97 µg/mL). Besides, the half-life at 1 μM in series [3] (setting [7]) fell in the range of 0.667 to 1.67 h.
With `CCOC(=O)c1c(-c2cccc(OC)c2Cl)noc1-c1cnn([C@H]2C[C@@](C)(O)C2)c1C(F)(F)F` [Example 131, ethyl 3-(2-chloro-3-methoxyphenyl)-5-{1-[3-hydroxy-3-methylcyclobutyl]-5-(trifluoromethyl)-1H-pyrazol-4-yl}-1,2-oxazole-4-carboxylate], the IC50 is under 50 nM in series [1]; under 50 nM in series [4] (Homo sapiens, PBMC); under 50 nM in series [5]. In series [2], the solubility at 24 h is over 10 µM. Further, the half-life at 1 μM in series [3] (setting [7]) is over 1.67 h.
As to `CCOC(=O)c1c(-c2cccc(OC)c2Cl)noc1-c1cnn(CCC(C)(C)O)c1C(F)(F)F` [Example 132, ethyl 3-(2-chloro-3-methoxyphenyl)-5-[1-(3-hydroxy-3-methylbutyl)-5-(trifluoromethyl)-1H-pyrazol-4-yl]-1,2-oxazole-4-carboxylate], the IC50 was under 50 nM in series [1]; under 50 nM in series [4] (Homo sapiens, PBMC); under 50 nM in series [5]. The solubility at 24 h in series [2] was 3 to 9.99 µM (≈ 1.51 to 5.01 µg/mL). Moreover, the half-life at 1 μM in series [3] (setting [7]) is 0.667 to 1.67 h.
For `CCN(CC)CCCOc1cccc(-c2noc(-c3cnn(CCC(C)(C)O)c3C)c2-c2ncccn2)c1Cl` [Example 147, 4-[4-(3-{2-chloro-3-[3-(diethylamino)propoxy]phenyl}-4-(pyrimidin-2-yl)-1,2-oxazol-5-yl)-5-methyl-1H-pyrazol-1-yl]-2-methylbutan-2-ol], the IC50 in series [1] lay within 500 to 5000 nM; in series [4] (Homo sapiens, PBMC), 500 to 5000 nM; in series [5], 50 to 500 nM. Further, the solubility at 24 h in series [2] is over 10 µM. Further, the half-life at 1 μM in series [3] (setting [7]) was over 1.67 h.
